Molecular target: rat nNOS (Rattus norvegicus, UniProt P29476)
Settings: for potency with nNOS relative to 1: amine in the chain replaced with ether or amide

| loss of binding affinity relative to 1 (nNOS, amine replaced with amide) | potency with nNOS relative to 1 | Compound |
| --- | --- | --- |
| 3-4 fold |  | Cc1cc(N)nc(CC2CNCC2NC(=O)CNCCc2cccc(F)c2)c1 (stereo not drawn) [compound 3, N-(4-((6-Amino-4-methylpyridin-2-yl)-methyl)-pyrrolidin-3-yl)-2-(3-fluorophenethylamino)-acetamide] |
|  | significant loss in potency | Cc1cc(N)nc(CC2CNCC2NCCOCCc2cccc(F)c2)c1 (stereo not drawn) [compound 4, 6-((4-(2-(3-Fluorophenethoxy)ethylamino)pyrrolidin-3-yl)methyl)-4-methyl-pyridin-2-amine] |
|  | significant loss in potency | Cc1cc(N)nc(CC2CNCC2OCCNC(=O)Cc2cccc(F)c2)c1 (stereo not drawn) [compound 6, N-(2-(4-((6-Amino-4-methylpyridin-2-yl)-methyl)pyrrolidin-3-yloxy)ethyl)-2-(3-fluorophenyl)acetamide] |

From article PMC2775099 (Bioorganic & medicinal chemistry, 2009)
